We go through six compounds from patent publication US9309225B2, “N-((1-benzyl-1H-1,2,3-triazol-4-yl)methyl)arylamide compounds as potential anticancer agents and a process for the preparation thereof” (COUNCIL OF SCIENTIFIC & INDUSTRIAL RESEARCH, priority 2013, dated 2016).

Common to all, as to type: cell-based
One assay relates to CCRF-CEM. Nature of the assay: NCI sixty human tumor cell line screen, Leukemia panel. Particulars: NCI protocol. As to the method: (§1) The in vitro anticancer activity studies for these N-((1-benzyl-1H-1,2,3-triazol-4-yl)methyl) arylamide analogues were carried out at the National Cancer Institute, USA.
(§2) The N-((1-benzyl-1H-1,2,3-triazol-4-yl)methyl)arylamide analogues have been tested at NCI, USA, against sixty human tumor cell lines derived from nine cancer types (leukemia, non-small cell lung cancer, colon cancer, CNS cancer, melanoma cancer, ovarian cancer, renal cancer, prostate cancer and breast cancer). For these compounds results are expressed as growth inhibition (GI50) values as per NCI protocol.

The test system of another assay is HL-60(TB). The assay is described as above. The note with it: NCI protocol. As to the method:
as §1, §2

The test system of another assay is K-562. The description is as above. The note with it: K562, K-562, Leukemia, NCI protocol. As to the method:
as §1, §2

Another assay concerns MOLT-4. Described as above. Particulars: MOLT-4, Leukemia, NCI protocol. As to the method:
as §1, §2

In another assay the test system is RPMI-8226. Described as above. Particulars: RPMI-8226, Leukemia, NCI protocol. How it is done:
as §1, §2

The test system of another assay is HOP-92. Nature of the assay: NCI sixty human tumor cell line screen, Non-small-cell-lung panel. The note with it: HOP-92, Non-small-cell-lung, NCI protocol. How it is done: as §1, §2
In the next assay the test system is NCI-H23. The description is as above. Particulars: NCI protocol. How it is done: as §1, §2
A further assay deals with NCI-H322M. Described as above. Particulars: NCI protocol. As to the method:
as §1, §2

The subject of a further assay is HCC-2998. Nature of the assay: NCI sixty human tumor cell line screen, Colon panel. Particulars: HCC-2998, Colon, NCI protocol. How it is done:
as §1, §2

Another assay has as its system HCT-15. The assay is described as above. Particulars: HCT-15, Colon, NCI protocol. How it is done:
as §1, §2

The test system of another assay is UACC-257. The assay can be described thus: NCI sixty human tumor cell line screen, Melanoma panel. The note with it: UACC-257, Melanoma, NCI protocol. How it is done:
as §1, §2

The subject of another assay is OVCAR-5. The assay can be described thus: NCI sixty human tumor cell line screen, Ovarian panel. Particulars: OVCAR-5, Ovarian, NCI protocol. How it is done: as §1, §2
A further assay concerns 786-0. The assay can be described thus: NCI sixty human tumor cell line screen, Renal panel. Particulars: 786-0, Renal, NCI protocol. As to the method: as §1, §2
Another assay deals with A549. The assay can be described thus: IC50 of compounds and E7010 against A549 cell line. The text has this: (§3) In the present investigation, an attempt has been made, in view of the biological importance of both 2-anilino nicotinyl structure and 1,2,3-triazoles group. […] Introduction of triazole group on 2-anilino nicotinyl moiety resulted that there is enhancement of biological activity of representative compounds (1a, 1b, 1c, 1d, 1f, 1g, 1i, 1k, 6b and 6g) compare with E7010. Biological data of representative compounds has been provided in Table 1. • (Novel sulfonamides as potential, systemically active antitumor agents. Yoshino, H.; Ueda, N.; Niijima, J.; Sugumi, H.; Kotake, Y.; Koyanagi, N.; Yoshimatsu, K.; Asada, M.; Watanabe, T.; Nagasu, T. J. Med. Chem. 1992, 35, 2496-2497)

A further assay concerns MCF-7. The assay can be described thus: IC50 of compounds and E7010 against MCF-7 cell line.
Excerpt: as §3

The test system of another assay is IGROV1. Nature of the assay: NCI sixty human tumor cell line screen, Ovarian panel. Particulars: IGROV-1, NCI protocol. How it is done: as §1, §2
For another assay, the system named is HS 578T. The assay can be described thus: NCI sixty human tumor cell line screen, Breast panel. Particulars: NCI protocol. How it is done:
as §1, §2

A further assay deals with SR. Nature of the assay: NCI sixty human tumor cell line screen, Leukemia panel. Particulars: NCI protocol. As to the method: as §1, §2
A further assay deals with MCF7. The assay can be described thus: NCI sixty human tumor cell line screen, Breast panel. The note with it: NCI protocol. How it is done: as §1, §2
Where [1] appears, read: Homo sapiens, A549, A549 cell line.
Where [2] appears, read: Homo sapiens, MCF7, MCF-7 cell line.

The GI50 is the concentration that inhibits growth by half. Broadly, the IC50 is the concentration needed to halve the response being measured. The low end stands for inhibition by little substance, the high end for a need for much substance. Turning to `COc1cc(Nc2ncccc2C(=O)NCc2cn(Cc3cccc(Oc4ccccc4)c3)nn2)cc(OC)c1` [Compound 1i, 2-(3,5-Dimethoxyphenylamino)-N-((1-(3-phenoxybenzyl)-1H-1,2,3-triazol-4-yl)methyl) nicotinamide], the 50% growth inhibitory concentration (GI50) with CCRF-CEM was 4.19 µM; with HL-60(TB) it was 3.97 µM; in the assay with K-562 it was 5.05 µM; in the assay on MOLT-4, 4.85 µM; with RPMI-8226, 5.25 µM; with HOP-92 it was 4.67 µM. Also, the GI50 in the assay with NCI-H23 is 6.22 µM; with NCI-H322M, 6.15 µM; in the assay with HCC-2998, 9.6 µM; in the assay on HCT-15, 3.89 µM; with UACC-257 it was 4.86 µM; in the assay on OVCAR-5 it was not below 100 µM. In the assay with 786-0, the GI50 came to 6.73 µM. Moreover, the IC50 was 1.93 µM in the assay with A549 (A549 cell line), 1.25 to 3.98 µM in the assay with A549 (setting [1]), 0.74 to 2.51 µM in the assay with MCF-7 (setting [2]) and 0.93 µM in the assay with MCF-7 (MCF-7 cell line).

Regarding `O=C(NCc1cn(Cc2cccc(Oc3ccccc3)c2)nn1)c1cccnc1Nc1ccc(F)cc1` [Compound 1b, 2-(4-Fluorophenylamino)-N-((1-(3-phenoxybenzyl)-1H-1,2,3-triazol4-yl)methyl)nicotinamide], the GI50 with HOP-92 was 10.7 µM; with NCI-H23, 29.9 µM; in the assay on NCI-H322M, 5.29 µM; in the assay on UACC-257, 6.87 µM; in the assay with IGROV1, 5.89 µM; in the assay with OVCAR-5, 4.23 µM. For the same compound, the GI50 came to 5.59 µM with 786-0 and 5.9 µM in the assay with HS 578T. In addition, the IC50 in the assay on A549 (A549 cell line) is 1.69 µM; in the assay with A549 (setting [1]) it was 1.25 to 3.98 µM.

Take `COc1ccc(Nc2ncccc2C(=O)NCc2cn(Cc3cccc(Oc4ccccc4)c3)nn2)cc1` [Compound 1e, 2-(4-Methoxyphenylamino)-N-((1-(3-phenoxybenzyl)-1H-1,2,3-triazol-4-yl)methyl) nicotinamide]: the GI50 in the assay with CCRF-CEM was determined as 3.8 µM; with HL-60(TB) it was 2.66 µM; in the assay with K-562 it was 3.48 µM; in the assay with MOLT-4 it was 2.91 µM; in the assay with RPMI-8226, 4.84 µM; with HOP-92 it was 5.67 µM. Besides, the GI50 was 3.45 µM in the assay with NCI-H23; 5.24 µM in the assay on NCI-H322M; 2.53 µM with HCC-2998; 3.93 µM in the assay with HCT-15; 4.82 µM in the assay with UACC-257; not below 100 µM in the assay on OVCAR-5. For the same compound, in the assay with 786-0, the 50% growth inhibitory concentration (GI50) stood at 6.73 µM.

On to `O=C(NCc1cn(Cc2cccc(Oc3ccccc3)c2)nn1)c1cccnc1NCc1ccc(Cl)cc1` [Compound 1k, 2-(4-Chlorobenzylamino)-N-((1-(3-phenoxybenzyl)-1H-1,2,3-triazol-4-yl)methyl) nicotinamide], for which the GI50 in the assay with CCRF-CEM was 3.05 µM; in the assay on HL-60(TB) it was 3.39 µM; in the assay with K-562, 3.24 µM; with MOLT-4 it was 3.28 µM; in the assay on RPMI-8226, 3.12 µM; in the assay with SR, 3.31 µM. Moreover, the GI50 in the assay on HOP-92 amounted to 4.23 µM; in the assay on HCC-2998 it was 4.17 µM; with HCT-15, 3.39 µM; in the assay on UACC-257 it was 3.83 µM; in the assay on IGROV1, 9.03 µM; with OVCAR-5, 5.62 µM. Further, the GI50 with HS 578T is 2.72 µM; with MCF7, 2.99 µM. Also, the values for the 50% inhibitory concentration (IC50) in the assay on A549 (A549 cell line) and in the assay on A549 (setting [1]) were 1.79 µM and 1.25 to 3.98 µM, respectively.

Consider `O=C(NCc1cn(Cc2cccc(Oc3ccccc3)c2)nn1)c1cccnc1Nc1ccccc1` [Compound 1a, N-((1-(3-Phenoxybenzyl)-1H-1,2,3-triazol-4-yl)methyl)-2-(phenylamino)nicotinamide], for which the GI50 came to 3.34 µM in the assay on CCRF-CEM; 3.74 µM in the assay with HL-60(TB); 3.69 µM with K-562; 3.74 µM in the assay with MOLT-4; 3.61 µM in the assay with RPMI-8226; 2.56 µM with SR. Moreover, the GI50 in the assay on NCI-H23 is 3.73 µM; in the assay with HCC-2998, 3.7 µM; in the assay on HCT-15, 3.81 µM; with UACC-257, 1.42 µM; in the assay with IGROV1, 30.7 µM; with 786-0, 23.2 µM. The same compound yielded a GI50 in the assay on HS 578T of 30.9 µM. Also, the results for the half-inhibitory concentration (IC50) in the assay on A549 (A549 cell line) and in the assay with A549 (setting [1]) were 1.54 µM and 1.25 to 3.98 µM, respectively.

Consider `COc1ccc(Nc2ncccc2C(=O)NCc2cn(Cc3cccc(Oc4ccccc4)c3)nn2)c(OC)c1` [Compound 1g, 2-(2,4-Dimethoxyphenylamino)-N-((1-(3-phenoxybenzyl)-1H-1,2,3-triazol-4-yl)methyl) nicotinamide], for which the GI50 in the assay on CCRF-CEM amounted to 1.2 µM; with HL-60(TB), 2.21 µM; in the assay on K-562, 0.75 µM; in the assay on MOLT-4 it was 3.65 µM; with RPMI-8226, 3.03 µM; in the assay on NCI-H23 it was 2.24 µM. Moreover, the GI50 came out at 3.33 µM in the assay with HCC-2998; 2.89 µM in the assay on HCT-15; 5.96 µM in the assay on IGROV1; 8.34 µM in the assay with OVCAR-5; 4.06 µM with 786-0; 2.94 µM in the assay on HS 578T. Also, the GI50 in the assay on MCF7 was found to be 0.65 µM. Moreover, the IC50 in the assay with A549 (A549 cell line) was 1.57 µM; in the assay on A549 (setting [1]), 1.25 to 3.98 µM; with MCF-7 (setting [2]) it was 0.74 to 2.51 µM; with MCF-7 (MCF-7 cell line), 0.74 µM.
